Reference: US11959083B2, “Immunosuppression-reverting oligonucleotides inhibiting the expression of CD39” (Secarna Pharmaceuticals GmbH & Co. KG, priority 2016, dated 2024)
l = locked nucleic acid (LNA); d = 2'-deoxy (DNA)

Key:
Type in all cases: cell-based, human
hCD39 protein = experiment: Concentration- and time-dependent hCD39 protein knockdown in HDLM-2 cells (flow cytometry); conditions: for Inhibition [%] (Protein/mRNA): HDLM-2, CD39 protein
Protocol: FIG. 8 depicts concentration- and time-dependent CD39 protein knockdown by A04040H (SEQ ID No. 3) and A04045H (SEQ ID No. 4). Analysis of CD39 protein expression by flow cytometry in HDML-2 cells is given after treatment with the indicated antisense oligonucleotides for 3, 4 and 6 days. As treatment control, cells were treated with neg1 for 3, 4 and 6 days at the indicated concentrations. Relative expression compared to untreated control cells (=1) is depicted.
(§1) HDLM-2 cells were therefore treated with different concentrations of the respective antisense oligonucleotide for three, four and six days, respectively. Protein expression was analyzed by flow cytometry using the CD39 antibody (clone A1) and 7-AAD to investigate viability. […] Table 13summarizes protein knockdown efficiency of the selected human CD39 antisense oligonucleotides A04040H (SEQ ID No. 3) and A04045H (SEQ ID No. 4) in HDLM-2 cells at different time points: […]

hCD39 mRNA [1] = experiment: IC50 determination / concentration-dependent hCD39 mRNA knockdown in HDLM-2 cells; conditions: for mRNA inhibition: HDLM-2, 3 days, Table 8
Outline: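 Antisense oligonucleotides applied to HDLM-2 cells for 3 days, titrated 10 μM down to 4.5 nM. hCD39 mRNA normalized to HPRT1 and expressed as residual level relative to untreated cells (100); mean of triplicates, IC50 from concentration-response.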

HDLM-2 cells = experiment: Viability of HDLM-2 cells (7-AAD, flow cytometry); conditions: three, four and six days, different concentrations
Protocol: as §1

hCD39 mRNA [2] = experiment: hCD39 mRNA knockdown efficacy screen in HDLM-2 cells (single dose, gymnotic delivery, QuantiGene Singleplex); parameters: key to Relative hCD39 mRNA expression (compared to non-treated cells): *: values are below detection limit; conditions: 10 μM, 3 days
Outline: (§2)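 Antisense oligonucleotides given once at 10 μM without transfection reagent (gymnotic) to HDLM-2 or A-172 cells for 3 days. hCD39 mRNA measured by QuantiGene Singleplex, normalized to HPRT1 and expressed relative to untreated cells; triplicate means.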

hCD39 mRNA [3] = experiment: hCD39 mRNA knockdown efficacy screen in A-172 cells (single dose, gymnotic delivery, QuantiGene Singleplex); conditions: 10 μM, 3 days, normalized to HPRT1
Outline: as §2

For “+C*+A*+C*T*T*A*C*G*T*T*C*A*C*T*+A*+C*+C (antisense CACTTACGTTCACTACC; sugars from the 5' end l3 d11 l3, all phosphorothioate, methylation of C not given here) [A04045H]”, the “Inhibition [%] (Protein/mRNA)” value (hCD39 protein; Day 3, 0.1 μM) was 38.81%, the “Inhibition [%] (Protein/mRNA)” value (hCD39 protein; Day 3, 0.5 μM) was 50.37% and the “Inhibition [%] (Protein/mRNA)” value (hCD39 protein; Day 3, 1 μM) was 51.53%. The “Inhibition [%] (Protein/mRNA)” value (hCD39 protein; Day 3, 10 μM) was 54.88%, the “Inhibition [%] (Protein/mRNA)” value (hCD39 protein; Day 4, 0.1 μM) was 61.88% and the “Inhibition [%] (Protein/mRNA)” value (hCD39 protein; Day 4, 0.5 μM) was 73.20%. For the same substance, the “Inhibition [%] (Protein/mRNA)” value (hCD39 protein; Day 4, 1 μM) was 75.55%, the “Inhibition [%] (Protein/mRNA)” value (hCD39 protein; Day 4, 10 μM) was 78.72% and the “Inhibition [%] (Protein/mRNA)” value (hCD39 protein; Day 6, 0.1 μM) was 80.24%. The “Inhibition [%] (Protein/mRNA)” value (hCD39 protein; Day 6, 0.5 μM) was 89.53%, the “Inhibition [%] (Protein/mRNA)” value (hCD39 protein; Day 6, 1 μM) was 90.46% and the “Inhibition [%] (Protein/mRNA)” value (hCD39 protein; Day 6, 10 μM) was 94.06%. The “inhibition of hCD39 protein” value (hCD39 protein; HDLM-2 cells, three, four and six days, different concentrations) was “potent inhibition of hCD39 protein after all indicated time points”, the mRNA inhibition (hCD39 mRNA [1]; 0.0045 μM) was 30.70% and the mRNA inhibition (hCD39 mRNA [1]; 0.013 μM) was 33.03%. It also gave a mRNA inhibition (hCD39 mRNA [1]; 0.04 μM) of 54.20%, a mRNA inhibition (hCD39 mRNA [1]; 0.12 μM) of 73.62% and a mRNA inhibition (hCD39 mRNA [1]; 0.4 μM) of 87.63%. The mRNA inhibition (hCD39 mRNA [1]; 1.1 μM) was 95.07%, the mRNA inhibition (hCD39 mRNA [1]; 3.3 μM) was 97.44% and the mRNA inhibition (hCD39 mRNA [1]; 10 μM) was 99.19%. The “maximal target inhibition (hCD39 mRNA)” value (hCD39 mRNA [1]; HDLM-2 cells, compared to untreated cells, first IC50 determination) was 99.2%, the IC50 (hCD39 mRNA [1]; HDLM-2 cells, hCD39 mRNA, 3 days, first screening round (Table 8)) was 66.8 nM and the “viability of HDLM-2 cells” value (HDLM-2 cells) was “did not affect viability”. For the same substance, the “Mean hCD39 mRNA expression normalized to HPRT1 relative to untreated control = 1” value (hCD39 mRNA [2]; first screening round) was 0.09, the “Relative hCD39 mRNA expression (compared to non-treated cells)” value (hCD39 mRNA [2]; second screening round, normalized to HPRT1) was “*” and the “Mean hCD39 mRNA expression (relative to untreated cells set as 1)” value (hCD39 mRNA [3]; first screening round) was 0.16. The “Relative hCD39 mRNA expression (compared to non-treated cells)” value (hCD39 mRNA [3]; second screening round) was 0.08.
